Results taken from US8716281B2, “Pyrimidine compounds that inhibit anaplastic lymphoma kinase” (Amgen Inc., priority 2010, dated 2014).
Read-outs that look alike come from different tables or passages of the source. Each block holds one molecule with its values, some of them ahead of it.

Target: T1, wild-type human ALK cytoplasmic domain (amino acids 1058-1620) (Homo sapiens, UniProt Q9UM73)
T1 construct: The cytoplasmic domain (amino acids 1058-1620) of wild-type human ALK; GST (N); made in house; host or cells: SF9 insect cells
Assay: ALK Inhibition in Enzyme Assay (Lance TR-FRET)
Type: biochemical
Summary of the method: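 Purified enzyme phosphorylated a biotinylated peptide substrate for 90 minutes at room temperature. Reactions were stopped with 20 mM EDTA in 50 mM Tris (pH 7.5), 100 mM NaCl, 0.05% BSA, 0.1% Tween-20. Phosphopeptide was detected by TR-FRET with SA-APC and Eu-W1024 anti-phosphotyrosine antibody PT66, excitation 320 nm.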

[1] = 2 nM enzyme, ATP at 40 μM (Km apparent), 90 minutes, mean of three replicates, read-out: ALK IC50

T1 sequence (Q9UM73 1058-1620): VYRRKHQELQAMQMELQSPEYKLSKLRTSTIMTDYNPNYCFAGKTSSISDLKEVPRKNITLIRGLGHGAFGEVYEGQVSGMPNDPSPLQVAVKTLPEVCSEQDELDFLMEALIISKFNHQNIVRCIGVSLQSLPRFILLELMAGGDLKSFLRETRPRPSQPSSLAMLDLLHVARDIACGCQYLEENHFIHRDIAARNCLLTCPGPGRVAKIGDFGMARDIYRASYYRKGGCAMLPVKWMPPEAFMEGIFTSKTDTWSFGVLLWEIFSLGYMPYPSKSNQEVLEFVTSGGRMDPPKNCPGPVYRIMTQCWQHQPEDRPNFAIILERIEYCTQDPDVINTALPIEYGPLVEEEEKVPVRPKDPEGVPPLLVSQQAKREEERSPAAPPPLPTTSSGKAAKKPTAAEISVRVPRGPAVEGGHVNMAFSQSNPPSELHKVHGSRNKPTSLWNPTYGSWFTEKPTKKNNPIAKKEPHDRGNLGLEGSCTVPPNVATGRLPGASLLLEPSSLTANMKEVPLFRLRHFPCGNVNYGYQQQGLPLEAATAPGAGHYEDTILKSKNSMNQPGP

Structure (SMILES): COc1cc(Nc2nccc(N3CCC[C@H](C(=O)NCCc4ccccc4Cl)C3)n2)cc(OC)c1OC [Example 99, (S)-N-(2-(2-chlorophenyl)ethyl)-1-(2-((3,4,5-trimethoxyphenyl)amino)-4-pyrimidinyl)-3-piperidinecarboxamide]
IC50 [1]: 1000 to 5000 nM

Structure (SMILES): COc1cc(Nc2nccc(N3CCC[C@H](C(=O)NC[C@H](C)c4ccccc4)C3)n2)cc(OC)c1OC [Example 101, (S)-N-((R)-2-phenylpropyl)-1-(2-((3,4,5-trimethoxyphenyl)amino)-4-pyrimidinyl)-3-piperidinecarboxamide]
IC50 [1]: 1000 to 5000 nM

Structure (SMILES): COc1cc(Nc2nccc(N3CCC[C@H](C(=O)NCc4cccc(Oc5ccc(Cl)cc5)c4)C3)n2)cc(OC)c1OC [Example 105, (S)-N-(3-(4-chlorophenoxy)benzyl)-1-(2-((3,4,5-trimethoxyphenyl)amino)-4-pyrimidinyl)-3-piperidinecarboxamide]
IC50 [1]: 1000 to 5000 nM

Structure (SMILES): COc1cc(Nc2nccc(N3CCC[C@H](C(=O)NCc4cccc(Oc5ccc(C)cc5)c4)C3)n2)cc(OC)c1OC [Example 114, (S)-N-(3-(4-methylphenoxy)benzyl)-1-(2-((3,4,5-trimethoxyphenyl)amino)-4-pyrimidinyl)-3-piperidinecarboxamide]
IC50 [1]: 1000 to 5000 nM

Structure (SMILES): COc1cc(Nc2nccc(N3CCC[C@H](C(=O)NCc4ccc(Oc5ccc(C)cc5)cc4)C3)n2)cc(OC)c1OC [Example 119, (S)-N-(4-(4-methylphenoxy)benzyl)-1-(2-((3,4,5-trimethoxyphenyl)amino)-4-pyrimidinyl)-3-piperidinecarboxamide]
IC50 [1]: 100 to 1000 nM

Structure (SMILES): COc1cc(Nc2nccc(N3CCC[C@H](C(=O)NCc4ccc(-c5cc(Cl)cc(Cl)c5)cc4)C3)n2)cc(OC)c1OC [Example 120, (S)-N-((3′,5′-dichloro-4-biphenylyl)methyl)-1-(2-((3,4,5-trimethoxyphenyl)amino)-4-pyrimidinyl)-3-piperidinecarboxamide]
IC50 [1]: 1000 to 5000 nM

Structure (SMILES): COc1cc(Nc2nccc(N3CCC[C@H](C(=O)NCc4ccc(-c5ccccc5Cl)cc4)C3)n2)cc(OC)c1OC [Example 121, (S)-N-((2′-chloro-4-biphenylyl)methyl)-1-(2-((3,4,5-trimethoxyphenyl)amino)-4-pyrimidinyl)-3-piperidinecarboxamide]
IC50 [1]: 100 to 1000 nM

Structure (SMILES): COc1cc(Nc2nccc(N3CCC[C@H](C(=O)NCc4ccc(S(C)(=O)=O)cc4)C3)n2)cc(OC)c1OC [Example 122, (S)-N-(4-(methylsulfonyl)benzyl)-1-(2-((3,4,5-trimethoxyphenyl)amino)-4-pyrimidinyl)-3-piperidinecarboxamide]
IC50 [1]: 1000 to 5000 nM

Structure (SMILES): COc1cc(Nc2nccc(N3CCC[C@H](C(=O)NCc4ccc(-c5ccc(F)cc5)cc4)C3)n2)cc(OC)c1OC [Example 123, (S)-N-((4′-fluoro-4-biphenylyl)methyl)-1-(2-((3,4,5-trimethoxyphenyl)amino)-4-pyrimidinyl)-3-piperidinecarboxamide]
IC50 [1]: 100 to 1000 nM

Structure (SMILES): COc1cc(Nc2nccc(N3CCC[C@H](C(=O)NCc4ccc(NC(C)=O)cc4)C3)n2)cc(OC)c1OC [Example 124, (S)-N-(4-(acetylamino)benzyl)-1-(2-((3,4,5-trimethoxyphenyl)amino)-4-pyrimidinyl)-3-piperidinecarboxamide]
IC50 [1]: 1000 to 5000 nM

Structure (SMILES): COc1cc(Nc2nccc(N3CCC[C@H](C(=O)NCCCc4ccccc4)C3)n2)cc(OC)c1OC [Example 126, (S)-N-(3-phenylpropyl)-1-(2-((3,4,5-trimethoxyphenyl)amino)-4-pyrimidinyl)-3-piperidinecarboxamide]
IC50: 5000 to 10000 nM

Structure (SMILES): Cc1ccc(CNC(=O)[C@H]2CCCN(c3ccnc(Nc4cnc5ccccc5c4)n3)C2)cc1 [Example 130, (3S)-N-(4-methylbenzyl)-1-(2-(3-quinolinylamino)-4-pyrimidinyl)-3-piperidinecarboxamide]
IC50 [1]: 1000 to 5000 nM

Structure (SMILES): Cc1ccc(CNC(=O)[C@H]2CCCN(c3ccnc(Nc4ccc5[nH]ccc5c4)n3)C2)cc1 [Example 131, (3S)-1-(2-(1H-indol-5-ylamino)-4-pyrimidinyl)-N-(4-methylbenzyl)-3-piperidinecarboxamide]
IC50 [1]: 1000 to 5000 nM

Structure (SMILES): COc1ccccc1Nc1nccc(N2CCC[C@H](C(=O)NCc3ccc(C)cc3)C2)n1 [Example 133, (3S)-1-(2-((2-methoxyphenyl)amino)-4-pyrimidinyl)-N-(4-methylbenzyl)-3-piperidinecarboxamide]
IC50 [1]: 1000 to 5000 nM

Structure (SMILES): Cc1ccc(CNC(=O)[C@H]2CCCN(c3ccnc(Nc4cccc(C(F)(F)F)c4)n3)C2)cc1 [Example 137, (3S)-N-(4-methylbenzyl)-1-(2-((3-(trifluoromethyl)phenyl)amino)-4-pyrimidinyl)-3-piperidinecarboxamide]
IC50 [1]: 1000 to 5000 nM

Structure (SMILES): COc1ccc(NC(C)=O)cc1Nc1nccc(N2CCC[C@H](C(=O)NCc3ccc(C)cc3)C2)n1 [Example 138, (3S)-1-(2-((5-(acetylamino)-2-methoxyphenyl)amino)-4-pyrimidinyl)-N-(4-methylbenzyl)-3-piperidinecarboxamide]
IC50 [1]: 1000 to 5000 nM

Structure (SMILES): Cc1ccc(CNC(=O)[C@H]2CCCN(c3ccnc(Nc4ccc(N5CCOCC5)cc4)n3)C2)cc1 [Example 139, (3S)-N-(4-methylbenzyl)-1-(2-((4-(4-morpholinyl)phenyl)ami-no)-4-pyrimidinyl)-3-piperidinecarboxamide]
IC50 [1]: 1000 to 5000 nM

Continued, values first:

IC50 [1]: 100 to 1000 nM
Structure (SMILES): COc1cc(Nc2nccc(N3CCC[C@H](C(=O)NCCc4ccc(F)cc4)C3)n2)cc(OC)c1OC [Example 100, (S)-N-(2-(4-fluorophenyl)ethyl)-1-(2-((3,4,5-trimethoxyphenyl)amino)-4-pyrimidinyl)-3-piperidinecarboxamide]

IC50 [1]: 100 to 1000 nM
Structure (SMILES): COc1cc(Nc2nccc(N3CCC[C@H](C(=O)NCCc4ccccc4F)C3)n2)cc(OC)c1OC [Example 102, (S)-N-(2-(2-fluorophenyl)ethyl)-1-(2-((3,4,5-trimethoxyphenyl)amino)-4-pyrimidinyl)-3-piperidinecarboxamide]

IC50 [1]: 100 to 1000 nM
Structure (SMILES): COc1cc(Nc2nccc(N3CCC[C@H](C(=O)NCc4cccc(F)c4)C3)n2)cc(OC)c1OC [Example 104, (S)-N-(3-fluorobenzyl)-1-(2-((3,4,5-trimethoxyphenyl)amino)-4-pyrimidinyl)-3-piperidinecarboxamide]

IC50 [1]: < 50 nM
Structure (SMILES): COc1cc(Nc2nccc(N3CCC[C@H](C(=O)NCc4cccc(-c5ccc(Cl)cc5)c4)C3)n2)cc(OC)c1OC [Example 106, (S)-N-((4′-chloro-3-biphenylyl)methyl)-1-(2-((3,4,5-trimethoxyphenyl)amino)-4-pyrimidinyl)-3-piperidinecarboxamide]

IC50 [1]: < 50 nM
Structure (SMILES): COc1cc(Nc2nccc(N3CCC[C@H](C(=O)NCc4cccc(-c5ccc(F)cc5)c4)C3)n2)cc(OC)c1OC [Example 108, (S)-N-((4′-fluoro-3-biphenylyl)methyl)-1-(2-((3,4,5-trimethoxyphenyl)amino)-4-pyrimidinyl)-3-piperidinecarboxamide]

IC50 [1]: 100 to 1000 nM
Structure (SMILES): CCOC(=O)C(C)Cc1cccc(CNC(=O)[C@H]2CCCN(c3ccnc(Nc4cc(OC)c(OC)c(OC)c4)n3)C2)c1 (stereo partly drawn) [Example 109, ethyl 2-methyl-3-(3-(((((S)-1-(2-((3,4,5-trimethoxyphenyl)amino)-4-pyrimidinyl)-3-piperidinyl)carbonyl)amino)methyl)phenyl)propanoate]

IC50 [1]: < 50 nM
Structure (SMILES): COc1cc(Nc2nccc(N3CCC[C@H](C(=O)NCc4cccc(-n5cccc5)c4)C3)n2)cc(OC)c1OC [Example 110, (S)-N-(3-(1H-pyrrol-1-yl)benzyl)-1-(2-((3,4,5-trimethoxyphenyl)amino)-4-pyrimidinyl)-3-piperidinecarboxamide]

IC50 [1]: 100 to 1000 nM
Structure (SMILES): COc1cc(Nc2nccc(N3CCC[C@H](C(=O)NCc4cccc(-n5cccn5)c4)C3)n2)cc(OC)c1OC [Example 111, (S)-N-(3-(1H-pyrazol-1-yl)benzyl)-1-(2-((3,4,5-trimethoxyphenyl)amino)-4-pyrimidinyl)-3-piperidinecarboxamide]

IC50 [1]: < 50 nM
Structure (SMILES): COc1cc(Nc2nccc(N3CCC[C@H](C(=O)NCc4cccc(Br)c4)C3)n2)cc(OC)c1OC [Example 113, (S)-N-(3-bromobenzyl)-1-(2-((3,4,5-trimethoxyphenyl)amino)-4-pyrimidinyl)-3-piperidinecarboxamide]

IC50 [1]: 100 to 1000 nM
Structure (SMILES): COc1cc(Nc2nccc(N3CCC[C@H](C(=O)NCc4ccc(C#N)cc4)C3)n2)cc(OC)c1OC [Example 115, (S)-N-(4-cyanobenzyl)-1-(2-((3,4,5-trimethoxyphenyl)amino)-4-pyrimidinyl)-3-piperidinecarboxamide]

IC50 [1]: 50 to 100 nM
Structure (SMILES): COc1cc(Nc2nccc(N3CCC[C@H](C(=O)NCc4ccc(Oc5ccccc5)cc4)C3)n2)cc(OC)c1OC [Example 116, (S)-N-(4-phenoxybenzyl)-1-(2-((3,4,5-trimethoxyphenyl)amino)-4-pyrimidinyl)-3-piperidinecarboxamide]

IC50 [1]: < 50 nM
Structure (SMILES): COc1cc(Nc2nccc(N3CCC[C@H](C(=O)NCc4ccc(C(C)C)cc4)C3)n2)cc(OC)c1OC [Example 117, (S)-N-(4-(1-methylethyl)benzyl)-1-(2-((3,4,5-trimethoxyphenyl)amino)-4-pyrimidinyl)-3-piperidinecarboxamide]

IC50 [1]: 100 to 1000 nM
Structure (SMILES): COc1cc(Nc2nccc(N3CCC[C@H](C(=O)NCc4ccc(Oc5ccc(Cl)cc5)cc4)C3)n2)cc(OC)c1OC [Example 118, (S)-N-(4-(4-chlorophenoxy)benzyl)-1-(2-((3,4,5-trimethoxyphenyl)amino)-4-pyrimidinyl)-3-piperidinecarboxamide]

IC50 [1]: < 50 nM
Structure (SMILES): COc1cc(Nc2nccc(N3CCC[C@H](C(=O)NC(C#N)c4ccc(OC(F)(F)F)cc4)C3)n2)cc(OC)c1OC (stereo partly drawn) [Example 127, (S)-N-(cyano(4-(trifluoromethoxy)phenyl)methyl)-1-(2-(3,4,5-trimethoxyphenylamino)pyrimidin-4-yl)piperidine-3-carboxamide]
